Where two headings read alike, the source gives them in different places. One block for each compound: values may come before it.
Tests used:
[1] = biological target: human class II OR identified in the library screening (Homo sapiens, UniProt Q8NGX5)
Target sequence in this assay (Q8NGX5 whole entry, the tested form may be a part): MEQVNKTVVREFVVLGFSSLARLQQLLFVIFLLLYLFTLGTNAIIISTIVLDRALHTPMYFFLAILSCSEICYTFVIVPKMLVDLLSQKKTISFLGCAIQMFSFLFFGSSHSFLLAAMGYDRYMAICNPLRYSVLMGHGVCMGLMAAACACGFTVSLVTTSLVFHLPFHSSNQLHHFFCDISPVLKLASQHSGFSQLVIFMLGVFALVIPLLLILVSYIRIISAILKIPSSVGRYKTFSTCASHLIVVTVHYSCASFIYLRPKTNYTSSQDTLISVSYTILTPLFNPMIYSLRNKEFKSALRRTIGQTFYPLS
Description: (§1) Selected ligand—OR pairs were then tested in a confirmatory test with a dose response analysis.
(§2) For selected receptors, the wild-type sequence was synthesized and cloned into pcDNA3.1 (+). Dose-response analysis with the cognate ligand was then performed for both the wild-type and the modified sequence.

[2] = biological target: human class II OR identified in the library screening (Homo sapiens, UniProt Q9Y4A9)
Target sequence in this assay (Q9Y4A9 whole entry, the tested form may be a part): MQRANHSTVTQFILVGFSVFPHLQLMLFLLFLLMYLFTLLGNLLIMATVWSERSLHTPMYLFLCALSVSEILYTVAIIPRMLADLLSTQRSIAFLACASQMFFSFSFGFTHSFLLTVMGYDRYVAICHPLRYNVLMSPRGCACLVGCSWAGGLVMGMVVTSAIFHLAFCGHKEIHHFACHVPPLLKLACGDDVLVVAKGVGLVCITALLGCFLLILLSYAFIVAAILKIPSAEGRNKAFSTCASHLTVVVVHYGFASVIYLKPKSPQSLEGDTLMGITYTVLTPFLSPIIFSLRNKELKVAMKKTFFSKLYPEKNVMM
Description: as §1, §2

[3] = biological target: human class II OR identified in the library screening (Homo sapiens, UniProt Q8NGX5); test: Confirmatory dose-response analysis of library-hit OR with cognate ligand, wild-type vs C-terminal domain SEQ ID NO: 221 (Table 17); conditions: read-out: Potency, EC50 changed C-term; OR10K1, modified C-terminus SEQ ID NO: 221 (SEQ ID NO: 687);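 further: Wild-type receptor sequences expressed from the pcDNA3.1(+) vector and compared with the C-terminally modified receptors in dose-response tests using each receptor's cognate ligand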
Target sequence in this assay (Q8NGX5 1-292): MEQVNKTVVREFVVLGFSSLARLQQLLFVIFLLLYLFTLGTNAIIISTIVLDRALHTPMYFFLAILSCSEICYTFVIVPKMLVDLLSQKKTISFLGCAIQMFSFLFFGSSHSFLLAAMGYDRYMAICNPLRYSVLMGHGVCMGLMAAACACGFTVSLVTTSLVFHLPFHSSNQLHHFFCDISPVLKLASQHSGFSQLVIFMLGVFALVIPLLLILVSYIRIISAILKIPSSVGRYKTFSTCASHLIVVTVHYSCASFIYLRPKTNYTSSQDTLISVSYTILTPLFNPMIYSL
Description: as §1, §2

[4] = biological target: human class II OR identified in the library screening (Homo sapiens, UniProt Q9Y4A9); test: as above; conditions: read-out: Potency, EC50 changed C-term; OR10H1, modified C-terminus SEQ ID NO: 221 (SEQ ID NO: 679)
Target sequence in this assay (Q9Y4A9 1-297): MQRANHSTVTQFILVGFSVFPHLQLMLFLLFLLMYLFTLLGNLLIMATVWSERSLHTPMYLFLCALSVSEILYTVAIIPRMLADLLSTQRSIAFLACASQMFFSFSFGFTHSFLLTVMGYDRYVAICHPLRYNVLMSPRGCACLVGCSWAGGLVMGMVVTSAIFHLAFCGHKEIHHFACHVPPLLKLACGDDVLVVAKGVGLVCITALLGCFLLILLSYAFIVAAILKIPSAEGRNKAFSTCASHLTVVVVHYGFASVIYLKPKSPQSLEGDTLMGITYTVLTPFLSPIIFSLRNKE
Description: as §1, §2

[5] = tested on: human class II OR identified in the library screening; test: as above; conditions: for Fold improvement efficacy: maximal induction; for Detection threshold; Fold improvement efficacy: under detection threshold; for EC50: read-out: Potency, EC50 changed C-term
Description: as §1, §2

[6] = biological target: human class II OR identified in the library screening (Homo sapiens, UniProt Q8NG80)
Target sequence in this assay (Q8NG80 whole entry, the tested form may be a part): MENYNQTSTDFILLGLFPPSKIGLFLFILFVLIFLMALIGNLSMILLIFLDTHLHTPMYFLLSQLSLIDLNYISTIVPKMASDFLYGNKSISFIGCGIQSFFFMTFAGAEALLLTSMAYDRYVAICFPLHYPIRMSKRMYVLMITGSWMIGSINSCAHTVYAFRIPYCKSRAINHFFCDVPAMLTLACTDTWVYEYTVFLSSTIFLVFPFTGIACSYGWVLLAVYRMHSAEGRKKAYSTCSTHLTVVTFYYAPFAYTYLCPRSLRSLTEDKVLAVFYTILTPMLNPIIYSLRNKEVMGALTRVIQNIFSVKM
Description: as §1, §2

[7] = biological target: human class II OR identified in the library screening (Homo sapiens, UniProt Q8NG85)
Target sequence in this assay (Q8NG85 whole entry, the tested form may be a part): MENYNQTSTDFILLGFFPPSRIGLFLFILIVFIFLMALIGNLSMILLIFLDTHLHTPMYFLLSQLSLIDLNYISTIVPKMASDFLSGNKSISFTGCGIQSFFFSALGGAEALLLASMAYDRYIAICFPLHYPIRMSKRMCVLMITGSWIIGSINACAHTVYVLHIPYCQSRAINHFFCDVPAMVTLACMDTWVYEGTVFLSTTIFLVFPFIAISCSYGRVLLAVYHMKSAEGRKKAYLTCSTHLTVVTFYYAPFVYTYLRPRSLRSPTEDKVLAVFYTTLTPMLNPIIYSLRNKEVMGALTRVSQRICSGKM
Description: as §1, §2

[8] = biological target: human class II OR identified in the library screening (Homo sapiens, UniProt Q8NG80); test: Confirmatory dose-response analysis of library-hit OR with cognate ligand, wild-type vs C-terminal domain SEQ ID NO: 221 (Table 17); conditions: read-out: Potency, EC50 changed C-term; OR2L5, modified C-terminus SEQ ID NO: 221 (SEQ ID NO: 413);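 further: Wild-type receptor sequences expressed from the pcDNA3.1(+) vector and compared with the C-terminally modified receptors in dose-response tests using each receptor's cognate ligand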
Target sequence in this assay (Q8NG80 1-296): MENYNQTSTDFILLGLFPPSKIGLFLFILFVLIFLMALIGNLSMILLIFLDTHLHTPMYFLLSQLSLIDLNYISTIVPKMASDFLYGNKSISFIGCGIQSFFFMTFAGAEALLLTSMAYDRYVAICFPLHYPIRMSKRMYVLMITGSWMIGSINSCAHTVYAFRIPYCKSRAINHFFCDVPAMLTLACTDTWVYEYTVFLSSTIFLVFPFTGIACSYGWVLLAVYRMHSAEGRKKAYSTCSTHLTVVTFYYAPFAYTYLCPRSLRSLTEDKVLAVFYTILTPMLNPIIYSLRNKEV
Description: as §1, §2

[9] = biological target: human class II OR identified in the library screening (Homo sapiens, UniProt Q8NG85); test: as above; conditions: read-out: Potency, EC50 changed C-term; OR2L3, modified C-terminus SEQ ID NO: 221 (SEQ ID NO: 412)
Target sequence in this assay (Q8NG85 1-296): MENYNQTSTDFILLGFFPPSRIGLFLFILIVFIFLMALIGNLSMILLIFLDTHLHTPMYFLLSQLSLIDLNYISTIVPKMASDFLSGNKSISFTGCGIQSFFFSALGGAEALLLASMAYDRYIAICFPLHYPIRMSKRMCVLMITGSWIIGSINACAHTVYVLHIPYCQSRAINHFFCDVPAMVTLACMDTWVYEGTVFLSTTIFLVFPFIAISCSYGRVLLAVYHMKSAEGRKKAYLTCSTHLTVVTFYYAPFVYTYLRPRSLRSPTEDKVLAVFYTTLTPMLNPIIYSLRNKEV
Description: as §1, §2

[10] = biological target: human class II OR identified in the library screening (Homo sapiens, UniProt Q9GZK7); test: as above; conditions: read-out: Potency, EC50 changed C-term; OR11A1, modified C-terminus SEQ ID NO: 221 (SEQ ID NO: 702)
Target sequence in this assay (Q9GZK7 1-298): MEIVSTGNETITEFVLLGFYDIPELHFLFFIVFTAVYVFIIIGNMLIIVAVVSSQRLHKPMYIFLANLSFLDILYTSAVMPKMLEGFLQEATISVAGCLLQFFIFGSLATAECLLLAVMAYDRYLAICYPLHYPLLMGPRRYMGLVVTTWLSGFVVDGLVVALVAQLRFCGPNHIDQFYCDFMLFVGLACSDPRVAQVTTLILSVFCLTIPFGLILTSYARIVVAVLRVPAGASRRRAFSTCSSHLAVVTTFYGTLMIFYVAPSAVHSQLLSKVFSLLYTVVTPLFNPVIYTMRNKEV
Description: as §1, §2

[11] = biological target: human class II OR identified in the library screening (Homo sapiens, UniProt Q9GZK7); test: as above
Target sequence in this assay (Q9GZK7 whole entry): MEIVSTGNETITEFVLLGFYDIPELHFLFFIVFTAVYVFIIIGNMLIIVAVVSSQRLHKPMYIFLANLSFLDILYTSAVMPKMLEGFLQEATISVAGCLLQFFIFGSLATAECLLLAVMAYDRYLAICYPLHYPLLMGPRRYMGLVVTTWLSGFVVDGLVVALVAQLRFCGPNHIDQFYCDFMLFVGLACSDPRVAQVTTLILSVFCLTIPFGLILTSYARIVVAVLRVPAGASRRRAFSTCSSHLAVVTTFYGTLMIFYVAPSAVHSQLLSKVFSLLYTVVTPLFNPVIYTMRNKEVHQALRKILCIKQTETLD
Description: as §1, §2

[12] = biological target: human class II OR identified in the library screening (Homo sapiens, UniProt Q8NGG4)
human class II OR identified in the library screening (Homo sapiens, UniProt Q8NGG4), sequence (Q8NGG4 whole entry): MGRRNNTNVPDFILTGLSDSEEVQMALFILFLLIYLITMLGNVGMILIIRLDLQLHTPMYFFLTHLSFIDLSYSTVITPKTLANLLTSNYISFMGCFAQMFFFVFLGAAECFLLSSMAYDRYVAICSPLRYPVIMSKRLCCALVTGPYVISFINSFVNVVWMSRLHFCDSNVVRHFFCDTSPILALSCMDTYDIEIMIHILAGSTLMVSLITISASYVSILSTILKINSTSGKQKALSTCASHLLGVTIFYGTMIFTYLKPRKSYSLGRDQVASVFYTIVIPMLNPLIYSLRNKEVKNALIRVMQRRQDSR
Description: as §1, §2

[13] = tested on: human class II OR identified in the library screening
Description: as §1, §2

[14] = biological target: human class II OR identified in the library screening (Homo sapiens, UniProt Q8NGN4); test: Confirmatory dose-response analysis of library-hit OR with cognate ligand, wild-type vs C-terminal domain SEQ ID NO: 221 (Table 17); conditions: OR10G9, wild-type sequence;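 further: Wild-type receptor sequences expressed from the pcDNA3.1(+) vector and compared with the C-terminally modified receptors in dose-response tests using each receptor's cognate ligand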
human class II OR identified in the library screening (Homo sapiens, UniProt Q8NGN4), sequence (Q8NGN4 whole entry, the tested form may be a part): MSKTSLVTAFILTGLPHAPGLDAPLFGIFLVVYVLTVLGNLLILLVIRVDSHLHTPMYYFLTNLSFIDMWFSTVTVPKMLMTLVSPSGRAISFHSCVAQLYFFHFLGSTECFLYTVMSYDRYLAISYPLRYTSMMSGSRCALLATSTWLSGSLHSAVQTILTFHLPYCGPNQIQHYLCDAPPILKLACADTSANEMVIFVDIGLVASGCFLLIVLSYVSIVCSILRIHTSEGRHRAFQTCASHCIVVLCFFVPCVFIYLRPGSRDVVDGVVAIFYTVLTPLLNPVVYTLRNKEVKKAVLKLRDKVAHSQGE
Description: as §1, §2

[15] = OR10K1, modified C-terminus SEQ ID NO: 221 vs wild-type
[16] = OR2L5, modified C-terminus SEQ ID NO: 221 vs wild-type
[17] = OR8H1, modified C-terminus SEQ ID NO: 221 vs wild-type
[18] = OR10G9, modified C-terminus SEQ ID NO: 221 (SEQ ID NO: 678)
[19] = OR10G9, modified C-terminus SEQ ID NO: 221 vs wild-type

SMILES: CC1CCCC2(C)CCCCC12O (stereo not drawn) [Geosmin]
EC50 [10]: 2.2 µM
EC50 [11]: 6.8 µM

SMILES: CCOc1cc(C)ccc1O [Ultravanil]
Detection threshold; concentration for 2-fold induction, wild-type [14]: 14.6 µM
Potency, Fold-improvement ([5]; OR10G9, EC50 modified C-terminus SEQ ID NO: 221 vs wild-type): 4.8 fold
Detection threshold; concentration for 2-fold induction, changed C-term. [5, 18]: 1.7 µM
Fold improvement efficacy [5, 19]: 3.4 fold
Detection threshold; Fold improvement efficacy [5, 19]: 8.62 fold
EC50 [5, 18]: 19 µM

Now from value to compound, other results behind:

Detection threshold; concentration for 2-fold induction, wild-type [1]: 9.4 µM
Detection threshold; concentration for 2-fold induction, wild-type [2]: no
EC50 [3]: 2.2 µM
EC50 [4]: 7 µM
SMILES: CC(C)CCc1ccc2c(c1)OCC(=O)CO2 [7-(3-Methylbutyl)-benzo[b][1,4]dioxepin-3-one]
Fold improvement efficacy ([5]; OR10H1, modified C-terminus SEQ ID NO: 221 vs wild-type): 10.0 fold
Potency, Fold-improvement ([5]; OR10K1, EC50 modified C-terminus SEQ ID NO: 221 vs wild-type): 3.1 fold
Fold improvement efficacy [5, 15]: 12.4 fold
Detection threshold; Fold improvement efficacy [5, 15]: 63.4 fold

Detection threshold; concentration for 2-fold induction, wild-type [6]: 40.5 µM
Detection threshold; concentration for 2-fold induction, wild-type [7]: no
EC50 [8]: 4.76 µM
EC50 [9]: 86.2 µM
SMILES: CCOC(=O)C1CCCCC1 [Ethyl cyclohexanecarboxylate]
Fold improvement efficacy ([5]; OR2L3, modified C-terminus SEQ ID NO: 221 vs wild-type): 17.1 fold
Potency, Fold-improvement ([5]; OR2L5, EC50 modified C-terminus SEQ ID NO: 221 vs wild-type): 24.1 fold
Fold improvement efficacy [5, 16]: 2.6 fold
Detection threshold; Fold improvement efficacy [5, 16]: 158.8 fold

Detection threshold; concentration for 2-fold induction, wild-type [12]: 6.9 µM
Detection threshold; concentration for 2-fold induction, changed C-term. [13]: 0.4 µM
EC50 ([5]; OR8H1, modified C-terminus SEQ ID NO: 221 (SEQ ID NO: 637)): 5.8 µM
SMILES: N#CC(=C1CCCCC1)c1ccccc1 [Peonile]
Potency, Fold-improvement ([5]; OR8H1, EC50 modified C-terminus SEQ ID NO: 221 vs wild-type): 2.95 fold
Fold improvement efficacy [5, 17]: 4.2 fold
Detection threshold; Fold improvement efficacy [5, 17]: 15.6 fold

Source: patent US20260210939A1, “MODIFIED OLFACTORY RECEPTORS” (GIVAUDAN SA, priority 2022, published 2026)
